Source: USRE37781E1, “Substituted cyclic carbonyls and derivatives thereof useful as retroviral protease inhibitors” (DuPont Pharmaceuticals Company, priority 1991, dated 2002)
Values joined by “and” are separate entries in the source; they are usually repeats but may differ in a detail not shown here. Equal entries are not always repeated. Where two headings read alike, the source gives them in different places.

What was measured:
[1] = target: single-chain tethered dimer of HIV protease (Human immunodeficiency virus 1, UniProt P04585); assay: biochemical; format: biochemical; set-up: fused on or other part: A second copy of the same protease unit is joined to the first by a short peptide tether, giving one polypeptide
[2] = system: HIV-1 (RF) in MT-2 cells; assay: microbe, parasite or virus in culture; format: cell-based
In short: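 Read-out: gag and pol viral RNA captured by 5′-biotinylated oligonucleotides on streptavidin-coated wells, detected with alkaline phosphatase-linked reporter oligonucleotides, calibrated against BH10 in vitro transcripts. Virus stocks (RF, MN, IIIB) come from H9 cultures; MT-2 host cells kept in RPMI 1640, 5% FCS.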

[3] = read-out: HPLC K1, Table 2d, class symbols
[4] = Human immunodeficiency virus 1, MT2, 48 h, Table 2d, class symbols, read-out: IC90
[5] = read-out: HPLC K1, Table 2d, HIV protease inhibition, HPLC method
[6] = Human immunodeficiency virus 1, MT2, 48 h, Table 2d, HIV RNA assay, read-out: IC90
[7] = Human immunodeficiency virus 1, MT2, Table 2i, read-out: IC90
[8] = Human immunodeficiency virus 1, MT2, Table 2q, read-out: IC90

| SMILES | Ki [1, 3] [µM] | melting point | IC90 [2, 4] [µg/mL] | Ki [1, 5] [µM] | IC90 [2, 6] [µg/mL] | also measured |
| --- | --- | --- | --- | --- | --- | --- |
| O=C(NCc1ccccc1)Oc1cccc(CN2C(=O)N(Cc3cccc(OC(=O)NCc4ccccc4)c3)C(Cc3ccccc3)C(O)C(O)C2Cc2ccccc2)c1 (stereo not drawn) [Example 9L] | 0.01 to 1 | 150 °C (dec.) | < 10 |  |  |  |
| CNC(=O)Oc1cccc(CN2C(=O)N(Cc3cccc(OC(=O)NC)c3)C(Cc3ccccc3)C(O)C(O)C2Cc2ccccc2)c1 (stereo not drawn) [Example 9M] | 0.01 to 1 | 150 °C (dec.) |  |  |  | IC90 ([2]; Human immunodeficiency virus 1, MT2, 48 h): < 10 µg/mL |
| CC(=O)c1cccc(CN2C(=O)N(Cc3cccc(C(C)=O)c3)C(Cc3ccccc3)C(O)C(O)C2Cc2ccccc2)c1 (stereo not drawn) [Example 9P] | 0.01 to 1 | 158 to 159 °C | < 10 |  |  |  |
| O=C1N(Cc2cccc(CCl)c2)C(Cc2ccccc2)C(O)C(O)C(Cc2ccccc2)N1Cc1cccc(CCl)c1 (stereo not drawn) [Example 9S] | 0.01 to 1 | 156 to 157 °C | < 10 |  |  |  |
| CC(=O)c1cccc(CN2C(=O)N(Cc3cccc(Br)c3)C(Cc3ccccc3)C(O)C(O)C2Cc2ccccc2)c1 (stereo not drawn) [Example 9o] | 0.01 to 1 | 190 to 191 °C | < 10 |  |  |  |
| NNC(=O)c1cccc(CN2C(=O)N(Cc3cccc(C(=O)NN)c3)C(Cc3ccccc3)C(O)C(O)C2Cc2ccccc2)c1 (stereo not drawn) [Example 10M] | < 0.01 | 205 °C | < 10 |  |  |  |
| CCOC(=O)c1ccc(CN2C(=O)N(Cc3ccc(C(=O)OCC)cc3)C(Cc3ccccc3)C(O)C(O)C2Cc2ccccc2)cc1 (stereo not drawn) [Example 11F] | 0.01 to 1 | 174 to 178 °C | > 100 |  |  |  |
| O=C1NC(Cc2ccccc2)C(O)C(O)C(Cc2ccccc2)N1Cc1ccc(CO)cc1 (stereo not drawn) [Example 11N] | < 0.01 | 112 to 114 °C | < 10 |  |  |  |
| CSc1cccc(CN2C(=O)N(Cc3cccc(SC)c3)C(Cc3ccccc3)C(O)C(O)C2Cc2ccccc2)c1 (stereo not drawn) [Example 12R] | < 0.01 | 169 °C and 169.3 °C | < 10 |  |  |  |
| O=C1N(Cc2cccc(-c3cnc[nH]3)c2)C(Cc2ccccc2)C(O)C(O)C(Cc2ccccc2)N1Cc1cccc(-c2cnc[nH]2)c1 (stereo not drawn) [Example 15BK] |  | 171 to 175 °C |  | < 0.01 | < 10 |  |
| COC(=O)c1cccc(CN2C(=O)N(Cc3cccc(-c4cc[nH]n4)c3)C(Cc3ccccc3)C(O)C(O)C2Cc2ccccc2)c1 (stereo not drawn) [Example 15BP] |  | 127 to 130 °C |  | < 0.01 | < 10 |  |
| O=C1N(Cc2cccc(-c3ncc[nH]3)c2)C(Cc2ccccc2)C(O)C(O)C(Cc2ccccc2)N1Cc1cccc(-c2ncc[nH]2)c1 (stereo not drawn) [Example 15BR] |  | 178 to 180 °C |  | < 0.01 | < 10 |  |
| O=C1N(Cc2cccnc2)C(Cc2ccccc2)C(O)C(O)C(Cc2ccccc2)N1Cc1cccc(-c2cc[nH]n2)c1 (stereo not drawn) [Example 15BU] |  | 133 to 136 °C |  | < 0.01 | < 10 |  |
| O=C1N(Cc2cccc(-c3cc[nH]n3)c2)C(Cc2ccccc2)C(O)C(O)C(Cc2ccccc2)N1Cc1ccc(O)c(O)c1 (stereo not drawn) [Example 15CC] |  | 177 to 180 °C |  | < 0.01 | < 10 |  |
| Nc1cccc(CN2C(=O)N(Cc3cccc(-c4cc[nH]n4)c3)C(Cc3ccccc3)C(O)C(O)C2Cc2ccccc2)c1 (stereo not drawn) [Example 15CE] |  | 136 to 138 °C |  | < 0.01 | < 10 |  |
| N#Cc1cc(CN2C(=O)N(Cc3cccc(-c4cc[nH]n4)c3)C(Cc3ccccc3)C(O)C(O)C2Cc2ccccc2)ccc1F (stereo not drawn) [Example 15CF] |  | 118 to 120 °C |  | < 0.01 | < 10 |  |
| O=C1N(Cc2ccoc2)C(Cc2ccccc2)C(O)C(O)C(Cc2ccccc2)N1Cc1ccoc1 (stereo not drawn) [Example 15FN] |  | 152.5 to 153 °C |  |  |  | Ki ([1]; read-out: HPLC K1, HIV protease inhibition, HPLC method, Table 2d): < 0.01 µM; IC90 ([2]; Human immunodeficiency virus 1, MT2, 48 h, HIV RNA assay, HIV-1 infected MT-2 cells, Table 2d, read-out: IC90): < 10 µg/mL |
| O=C1N(CCCCCO)C(Cc2ccccc2)C(O)C(O)C(Cc2ccccc2)N1Cc1ccc2ccccc2c1 (stereo not drawn) [Example 15VH] | < 0.01 | 84.6 °C | < 10 |  |  |  |
| O=C1N(Cc2cccc(OCCN3CCOCC3)c2)C(Cc2ccccc2)C(O)C(O)C(Cc2ccccc2)N1Cc1cccc(OCCN2CCOCC2)c1 (stereo not drawn) [Example 15YG] |  | 110 to 112 °C |  | 0.01 to 1 | < 10 |  |
| O=C1N(CC2CC2)C(Cc2ccc([N+](=O)[O-])cc2)C(O)C(O)C(Cc2ccccc2[N+](=O)[O-])N1CC1CC1 (stereo not drawn) [Example 20A] |  | 209.8 °C |  |  |  | Ki ([1]; read-out: HPLC Ki, Table 2i): < 0.01 µM; IC90 [2, 7]: < 10 µg/mL |
| O=C1N(CC2CC2)C(Cc2ccc([N+](=O)[O-])cc2)C(O)C(O)C(Cc2ccc([N+](=O)[O-])cc2)N1CC1CC1 (stereo not drawn) [Example 20B] |  | 227.5 °C |  |  |  | Ki ([1]; read-out: HPLC Ki, Table 2i): < 0.01 µM; IC90 [2, 7]: < 10 µg/mL |
| O=S1(=O)N(CC2CC2)C(Cc2ccccc2)C(O)C(O)C(Cc2ccccc2)N1CC1CC1 (stereo not drawn) [Example 23F] |  | 71 to 72 °C |  |  |  | Ki ([1]; read-out: HPLC Ki, Table 2m): < 0.01 µM; IC90 ([2]; Human immunodeficiency virus 1, MT2, Table 2m, read-out: IC90): < 10 µg/mL |
| OC1C(O)C(Cc2ccccc2)N(Cc2ccccc2)C(=S)N(Cc2ccccc2)C1Cc1ccccc1 (stereo not drawn) [Example 27A] |  | 92 to 94 °C |  |  |  | Ki ([1]; read-out: HPLC Ki, Table 2q): < 0.01 µM; IC90 [2, 8]: < 10 µg/mL |
| OC1C(O)C(Cc2ccccc2)N(CC2CC2)C(=S)N(CC2CC2)C1Cc1ccccc1 (stereo not drawn) [Example 27B] |  | 84 to 86 °C |  |  |  | Ki ([1]; read-out: HPLC Ki, Table 2q): < 0.01 µM; IC90 [2, 8]: < 10 µg/mL |
